NK cell activity data for one molecule are collected here from patent publication US20070264287A1, “Methods for Increasing the Immune Response in an Animal” (priority 2004, published 2007).

The experiment deals with NK cell activity. As to the kind of experiment: NK cell activity in old dogs fed a diet fortified with lipoic acid. It is filed as in vivo. The settings on record: old beagles (Group 3, average age 11.3 years), dry food fortified with 150 ppm lipoic acid on a dry matter basis, six weeks, versus baseline and young and old controls; FIG. 1. An excerpt:
The dogs are beagles and Group 1 consists of 10 beagles with the average age of 5.1 years old, Group 2 consists of 10 beagles with an average age of 11.8 years old, and Group 3 consists of 10 beagles with an average age of 11.3 years old. The dogs from all three groups are fed the controlled food for a two week period prior to intervention. […] During the two week period on the control, samples are taken from all dogs and chemical and biological analysis is completed on the samples to establish base line data. Then three groups of dogs eat their respective diets for a six week period of time and after this time period, samples are taken from all of the dogs in the study and chemical and biological analysis is completed on the samples. Baseline data is compared to the data taken at the end of the six week study.

Structures are written as SMILES.

For `O=C(O)CCCC[C@@H]1CCSS1` (racemic) [lipoic acid], the NK cell activity result is given as “increased NK cell activity”.
